Columns and labels:
post-immune IgY = assay: Inhibition of chicken post-immune IgY binding to pRBC, flow cytometry; conditions: pre-incubation with 3.75 mM NeuGc
Procedure: FIG. 3. Flow cytometry analysis of chicken antibody raised against porcine gangliosides. The antibody sample was incubated with α-galactosidase pRBC (type O) at room temperature for 0.5 hour. Anti-chicken IgG (H+L) conjugated with FITC was used as a second antibody. Cells alone or cells plus the secondary antibody (1) were used as a background control for the flow cytometry (Becton Dickinson). Chicken antibodies (0.1 ul each) prepared from pre-immune eggs (2) and post-immune eggs (3) were analyzed by flow cytometry analysis. Post-immune antibodies were pre-incubated with 3.75 mM NeuGc (4) or 3.75 mg/ml porcine gangliosides (5) prior to the analysis. To examine the effect of ganglioside immunization and level of induced antibodies in eggs, IgY prepared from pre-immune eggs and post-immune eggs were analyzed by flow cytometry analysis using α-galactosidase-treated pRBC. […] We are collecting 20-25 eggs per hen per month.

chicken anti-NeuGc = assay: Inhibition of purified chicken anti-NeuGc binding to pRBC, flow cytometry; conditions: at 9.5 mM of NeuGc
Procedure: (§1) FIG. 5. Selective inhibition of chicken anti-NeuGc and anti-gangliosides. (A) Prior to flow cytometry analysis, both antibodies were pre-incubated with increased amount of NeuGc. (B) Both antibodies were pre-incubated with increasing amount of porcine gangliosides. To further purify chicken antibodies that bind to the thyroglobulin column, we eluted the column with PBS containing NeuGc, followed by glycine-HCI, pH 2.5. The two resultant fractions are designated as anti-NeuGc and anti-gangliosides, respectively, based on detailed characterization of their binding specificities as described below. Quantitatively, there are roughly ten times more anti-NeuGc than anti-gangliosides activity in the chicken antibodies based on flow cytometry analysis (assuming there are the same amounts of binding sites for both antibodies on pRBC). Both of antibody fractions, anti-NeuGc and anti-gangliosides, derived from further purification of the post-immune IgY bind to pRBC in flow cytometry.

[1] = test system: human anti-nonαGal (anti-NeuGc); assay: Inhibition of human anti-nonαGal binding to pRBC by sialic acids, flow cytometry; conditions: for effect on antibody binding to pRBC: antibodies preincubated with 10 mM sialic acid
Procedure: FIG. 1. Flow cytometry analysis of human anti-nonαGal. The antibodies were incubated with pRBC (type O) at room temperature for 30 min. Anti-human IgG (H+L) conjugated with R-phycoerythrin (PE) was used as a second antibody. (A) The antibodies were bound to untreated (peak 1) or sialidase-treated (peak 2) pRBC. In an inhibition assay, the antibodies were preincubated with NeuAc (peak 3) or NeuGc (peak 4) prior to binding with untreated pRBC. Cells plus the secondary antibody (peak 5) was used as background controls for the flow cytometry. (B) The antibodies were pre-incubated with increasing concentrations of NeuGc (●) or NeuAc (∘) prior to flow cytometry analysis. The percentage of binding (% MFI) was plotted against sialic acid concentrations. Human anti-nonαGal was prepared by depleting anti-αGal from the total xenoreactive antibodies in the serum (31). […] On the other hand, pre-treatment of fresh pRBC with a number of other exoglycosidases (β-galactosidase, α-N-acetylgalactosaminidase and hexosaminidase) had no effect on antibody binding (data not shown). To elucidate the nature of antigens recognized by anti-nonαGal, the antibodies were preincubated with 10 mM NeuGc or NeuAc prior to the binding with pRBC.

[2] = test system: breast cancer cell line MCF-7; assay: ECL fluorescence immunoassay on fixed MCF-7 cells; type: cell-based; conditions: 30 mM NeuGc
Procedure: More recently, we have succeeded in detecting NeuGc antigen in breast cancer cell line MCF-7 using purified chicken anti-NeuGc antibody. Cells are seeded in chambered slides under cell culture conditions. After growing upto 80%-90% confluence (approximately 2-3 days), cells are gently washed with PBS, pH 7.2, and then fixed in 300 ul methanol for 5 min at room temperature. The chambered slides are blocked with PBS containing 2% BSA prior to the incubation with purified chicken anti-NeuGc in a ECL fluorescence immunoassay. […] Its binding specificity was confirmed by inhibition with 30 mM NeuGc.

[3] = test system: chicken anti-gangliosides; assay: Inhibition of purified chicken anti-gangliosides binding to pRBC, flow cytometry; conditions: pre-incubation with NeuGc
Procedure: as §1

| SMILES | inhibition of binding activity (post-immune IgY) | inhibition of anti-NeuGc binding (chicken anti-NeuGc) | inhibition of human anti-NeuGc activity by pre-incubation ([1]; anti-NeuGc purified from normal human sera) | effect on antibody binding to pRBC [1] | inhibition of antibody binding ([1]; at 1.2 mM of NeuGc) | IC50 ([1]; based on mean fluorescent intensity (MFI), read-out: I50 value (concentration that gives rise to 50% inhibition)) | inhibition of anti-NeuGc binding to MCF-7 cells [2] | maximal inhibition of anti-gangliosides binding [3] | inhibition of antibody binding ([1]; NeuAc as high as 6 mM) |
| --- | --- | --- | --- | --- | --- | --- | --- | --- | --- |
| O=C(CO)N[C@H]1[C@H]([C@H](O)[C@H](O)CO)OC(O)(C(=O)O)C[C@@H]1O (stereo partly shown) [NeuGc, N-glycolylneuraminic acid] | partially inhibited | more than 95% | specifically inhibited | strong inhibitory effect | Ninety | ~73 µM | inhibition | approximately 30% | – |
| CC(=O)N[C@H]1[C@H]([C@H](O)[C@H](O)CO)OC(O)(C(=O)O)C[C@@H]1O (stereo partly shown) [NeuAc, N-acetylneuraminic acid] | – | – | – | no effect | – | – | – | – | essentially no inhibition |

— patent publication US20020192231A1, “Method of increasing anti-neuGc antibody levels in blood” (Immucom Inc., priority 2001, published 2002)
